Measured values: patent US6828341B2, “Cyclohexylamine derivatives as subtype selective N-Methyl-D-Aspartate antagonists” (Warner-Lambert Company, priority 2001, dated 2004)
Counter-ions that a name gives are not always drawn.

Legend:
[1] = molecular target: T1, NR1A/NR2B NMDA receptor subtype (Rattus norvegicus, UniProt P35439+Q00960); assay: [3H]Ifenprodil binding assay (IFPNR); details: displacement of 4 nM [3H]-ifenprodil, adult rat forebrain membranes, 2 hours at room temperature, pH 7.4
T1 construct: membrane fraction was prepared from frozen adult rat forebrains; tissue Zivic-Miller Laboratories, Inc; host or cells: adult rat forebrain, washed buffy coat membrane fraction
Procedure: (b) [^3H]Ifenprodil Binding Assay (IFPNR) Protocol:
Ifenprodil, [phenyl-^3H]-(specific activity, 66.2 Ci/mmol) was purchased from Dupont NEN Research Products (Boston, Mass.). Ifenprodil tartrate was purchased from Research Biochemicals International (Natick, Mass.). HEPES, glutamate, and glycine were purchased from Sigma Chemical Co. (St. Louis, Mo.).
All buffers and reagents used in assay incubations or to dissolve drugs were prepared using water purified through a Milli-Q reverse osmosis system (Millipore Corp., Bedford, Mass.) and treated with UV emissions. Prior to use in the assays buffers were further filtered through a sterile Corning filtration unit (Corning Glass Works, Corning, N.Y.) containing a 0.2 micron filter. Buffer used to rinse the membranes on the assay filters was prepared with purified water, but was not refiltered and was stored no longer than 5 days. Stock solutions of the drugs (usually 10 mM) were dissolved in 20 mM HEPES-KOH buffer pH 7.4 (assay buffer) with the addition of from 1 to 5 μL of glacial AcOH, if needed to keep them in solution. Eliprodil was used as the reference NMDA antagonist. A stock solution of eliprodil was prepared and was buffered with the addition of 10% DMSO. All subsequent dilutions from the stock solution were made in buffer.
An extensively washed buffy coat membrane fraction was prepared from frozen adult rat forebrains (Zivic-Miller Laboratories, Inc., Zelienople, Pa.) as described by Coughenour L. L., Cordon J. J., J. Phannacol. Exp. Ther., 1997;280:584-592, and stored at −80° C. On the day of the assay, pellets of the frozen membrane fractions were resuspended in 35 mL of assay buffer at pH 7.4 using a POLYTRON (Kinematica A.G. Company, Littau, Switzerland) mixer at setting 6. After incubation at 37° C. for 30 minutes in a shaking water bath, the homogenate was centrifuged 40,000×g for 10 minutes at 4° C. The pellets were resuspended in fresh buffer and centrifuged 3 more times before final suspension for use in the assay.
Triplicate incubations were carried out in a volume of 0.5 mL in 1.3 mL polypropylene tubes (Marsh Biomedical Products Inc., Rochester, N.Y.) for 2 hours at room temperature. Incubations contained invention compounds, membranes (100-200 μg protein) and 4 nM [^3H]-ifenprodil in 20 mM HEPES-KOH buffer, pH 7.4 (assay buffer). Assays were started by addition of the membranes. Bound radioligand was separated by filtration under reduced pressure using a TOMTEC Mach II, 96 well cell harvester (Tomtec Inc, Orange, Conn.). Filtration was through Whatman GF/B glass fiber filters (Whatman Ltd., Maidstone, England), which had been soaked for at least 15 minutes in 0.3% polyethylenimine and allowed to air dry. The filters were rinsed with 3 mL of ice cold assay buffer within 6 seconds. Air was allowed to pass through the filters for an additional 10 seconds to remove residual moisture. The filter mat was supported on a cold (−20° C.) TEFLON (E. I. Du Pont de Nemours and Company, Wilmington, Del.) coated support, and filters from individual wells were separated and placed in Mini Poly-Q vials (Beckman Instruments Inc., Fullerton, Calif.) and filled with 4 mL of scintillation cocktail (Beckman Ready Protein^+). Radioactivity retained on the filter was determined by liquid scintillation spectrophotometry. Nonspecific binding was defined as the binding in the presence of 1 mM ifenprodil. 90% of the total binding of ifenprodil was specific binding at the NR1A/NR2B NMDA receptor subtype active site (as opposed to binding at a remote site).
Binding curves were statistically analyzed for a best one- or two-site competition fit using GRAPHPAD PRISM software (GraphPad Software Inc., San Diego, Calif.), a computer program used to analyze and graph scientific data. The normalized data was fitted by nonweighted nonlinear regression to either [formula]
Control data was entered as 100%, and no parameters were constrained. […]

T1 sequence (Q00960 27-1482, other chains not shown): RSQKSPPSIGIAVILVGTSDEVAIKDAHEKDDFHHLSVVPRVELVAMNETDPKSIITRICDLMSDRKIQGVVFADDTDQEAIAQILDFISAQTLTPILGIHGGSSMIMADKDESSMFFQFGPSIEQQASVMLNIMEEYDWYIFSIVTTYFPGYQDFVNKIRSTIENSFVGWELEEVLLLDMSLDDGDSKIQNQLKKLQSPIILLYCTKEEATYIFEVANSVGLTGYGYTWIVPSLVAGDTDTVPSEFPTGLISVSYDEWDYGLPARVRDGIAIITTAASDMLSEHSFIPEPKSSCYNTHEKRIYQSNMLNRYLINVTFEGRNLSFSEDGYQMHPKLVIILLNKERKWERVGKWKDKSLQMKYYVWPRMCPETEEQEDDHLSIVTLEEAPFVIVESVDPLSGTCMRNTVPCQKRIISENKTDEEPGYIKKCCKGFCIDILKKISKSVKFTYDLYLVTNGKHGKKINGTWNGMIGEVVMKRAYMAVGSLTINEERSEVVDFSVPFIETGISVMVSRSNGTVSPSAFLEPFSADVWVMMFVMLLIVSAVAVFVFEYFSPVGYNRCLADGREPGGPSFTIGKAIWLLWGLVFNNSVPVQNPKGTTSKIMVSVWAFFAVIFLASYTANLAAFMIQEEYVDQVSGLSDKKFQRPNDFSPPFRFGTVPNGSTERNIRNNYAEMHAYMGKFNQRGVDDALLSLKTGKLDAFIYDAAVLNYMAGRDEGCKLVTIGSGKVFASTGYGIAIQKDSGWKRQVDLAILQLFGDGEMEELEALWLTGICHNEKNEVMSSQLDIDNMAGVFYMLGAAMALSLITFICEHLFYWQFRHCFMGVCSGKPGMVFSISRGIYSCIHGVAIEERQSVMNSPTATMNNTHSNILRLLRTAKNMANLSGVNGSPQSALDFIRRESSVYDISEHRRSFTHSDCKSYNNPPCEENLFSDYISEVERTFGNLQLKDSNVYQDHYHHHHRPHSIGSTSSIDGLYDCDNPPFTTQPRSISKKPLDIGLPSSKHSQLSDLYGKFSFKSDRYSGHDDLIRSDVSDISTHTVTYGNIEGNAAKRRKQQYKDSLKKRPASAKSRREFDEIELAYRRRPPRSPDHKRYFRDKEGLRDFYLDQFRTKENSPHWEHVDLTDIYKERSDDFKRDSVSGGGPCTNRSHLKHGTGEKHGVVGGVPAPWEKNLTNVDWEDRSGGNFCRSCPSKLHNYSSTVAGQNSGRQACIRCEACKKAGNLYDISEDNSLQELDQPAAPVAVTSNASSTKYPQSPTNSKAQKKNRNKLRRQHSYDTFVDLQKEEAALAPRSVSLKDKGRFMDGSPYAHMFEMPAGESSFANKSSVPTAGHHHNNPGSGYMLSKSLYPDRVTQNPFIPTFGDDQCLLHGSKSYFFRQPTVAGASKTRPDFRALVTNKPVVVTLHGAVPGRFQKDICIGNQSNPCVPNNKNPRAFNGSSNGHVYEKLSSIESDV

Compound | melting point | IC50 [1]
Cc1oc(-c2ccccc2)cc1CN(C)[C@H]1CC[C@H](c2ccc3[nH]c(=O)oc3c2)CC1 (as salt: hydrochloride) [Example 2, trans-6-{4-[Methyl-(2-methyl-5-phenyl-furan-3-ylmethyl)-amino]-cyclohexyl}-3H-benzoxazol-2-one] | 176 to 183 °C | 
O=C1OC(CNC2CCC(c3ccc(F)cc3)CC2)CN1c1ccc2[nH]c(=O)oc2c1 (stereo not drawn) [Example 4a, trans-6-{5-[4-(4-Fluoro-phenyl)-cyclohexylamino]-methyl-2-oxo-oxazolindin-3-yl}-3H-benzoxazol-2-one] |  | > 1000 nM
CN(CC1CC(c2ccc3[nH]c(=O)oc3c2)=NO1)[C@H]1CC[C@H](c2ccccc2)CC1 (relative stereo) [Example 1, trans-6-(5-{[Methyl-(4-phenyl-cyclohexyl)-amino]-methyl}-4,5-dihydro-isoxazol-3-yl)-3H-benzoxazol-2-one] |  | 5900 nM
CN(CC1CC(c2ccc(F)cc2)=NO1)[C@H]1CC[C@H](c2ccc3[nH]c(=O)oc3c2)CC1 (relative stereo) [Example 6b, trans-6-(4-{[3-(4-Fluoro-phenyl)-4,5-dihydro-isoxazol-5-ylmethyl]-methyl-amino}-cyclohexyl)-3H-benzoxazol-2-one] | 109 to 114 °C | 391 nM
Cc1oc(-c2ccccc2)cc1CN(C)[C@H]1CC[C@H](c2ccc3[nH]c(=O)oc3c2)CC1 [Example 2, trans-6-{4-[Methyl-(2-methyl-5-phenyl-furan-3-ylmethyl)-amino]-cyclohexyl}-3H-benzoxazol-2-one] |  | 6670 nM
Cc1sc(-c2ccccc2)nc1CN(C)[C@H]1CC[C@H](c2ccc3[nH]c(=O)oc3c2)CC1 [Example 5b, trans-6-{4-[Methyl-(5-methyl-2-phenyl-thiazol-4-ylmethyl)-amino]-cyclohexyl}-3H-benzoxazol-2-one] | 246 to 248 °C | 848 nM
CN(CC1CC(c2ccc3[nH]c(=O)oc3c2)=NO1)[C@H]1CC[C@H](c2ccccc2)CC1 (relative stereo) (as salt: hydrochloride) [Example 1, trans-6-(5-{[Methyl-(4-phenyl-cyclohexyl)-amino]-methyl}-4,5-dihydro-isoxazol-3-yl)-3H-benzoxazol-2-one] | 270 to 274 °C | 
CN(CC1CN(c2ccc3[nH]c(=O)oc3c2)C(=O)O1)C1CCC(c2ccc(F)cc2)CC1 (stereo not drawn) [Example 4b, trans-6-(5-{[4-(4-Fluoro-phenyl)-cyclohexyl]-methyl-amino}-methyl-2-oxo-oxazolindin-3-yl)-3H-benzoxazol-2-one] |  | > 1000 nM
CN(C[C@@H]1CN(c2ccccc2)C(=O)O1)[C@H]1CC[C@H](c2ccc3[nH]c(=O)oc3c2)CC1 [Example 3b, trans-(R)-6-{4-[Methyl-(2-oxo-3-phenyl-oxazolidin-5-ylmethyl)-amino]-cyclohexyl}-3H-benzoxazol-2-one] |  | 394 nM
